Publication PMC6151782, “Synthesis, In Vitro α-Glucosidase Inhibitory Activity and Molecular Docking Studies of Novel Benzothiazole-Triazole Derivatives” (Molecules : A Journal of Synthetic Chemistry and Natural …, 2017)

Columns and labels:
[1] = molecular target: T1, Baker’s yeast α-glucosidase enzyme (Saccharomyces cerevisiae, UniProt P53341); assay: biochemical
T1 construct: purchased
Description: The sample solution was replaced by DMSO as a control. Acarbose was used as a positive control.

T1 sequence (P53341 whole entry): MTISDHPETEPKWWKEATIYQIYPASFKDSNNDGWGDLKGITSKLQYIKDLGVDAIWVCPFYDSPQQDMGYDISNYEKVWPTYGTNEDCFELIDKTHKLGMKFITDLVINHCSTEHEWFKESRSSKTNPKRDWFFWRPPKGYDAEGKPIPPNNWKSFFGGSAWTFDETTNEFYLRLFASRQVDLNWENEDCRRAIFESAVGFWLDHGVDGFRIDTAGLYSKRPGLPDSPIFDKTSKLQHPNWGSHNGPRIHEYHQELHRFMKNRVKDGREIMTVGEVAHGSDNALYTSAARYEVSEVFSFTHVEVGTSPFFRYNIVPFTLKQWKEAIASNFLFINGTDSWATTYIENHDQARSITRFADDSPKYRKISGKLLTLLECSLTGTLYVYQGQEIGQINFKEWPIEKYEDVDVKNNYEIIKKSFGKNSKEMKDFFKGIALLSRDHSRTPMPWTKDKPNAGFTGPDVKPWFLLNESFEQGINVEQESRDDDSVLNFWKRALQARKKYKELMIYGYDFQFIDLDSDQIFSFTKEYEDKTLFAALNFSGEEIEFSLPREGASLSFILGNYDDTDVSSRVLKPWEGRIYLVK

| SMILES | IC50 [1] | melting point |
| --- | --- | --- |
| Brc1ccc(Cn2cc(CSc3nc4ccccc4s3)nn2)cc1 [Compound 6a, 2-(((1-(4-Bromobenzyl)-1H-1,2,3-triazol-4-yl)methyl)thio)benzo[d]thiazole] | 28.7 µM | 112 to 114 °C |
| Clc1ccccc1Cn1cc(CSc2nc3ccccc3s2)nn1 [Compound 6b, 2-(((1-(2-Chlorobenzyl)-1H-1,2,3-triazol-4-yl)methyl)thio)benzo[d]thiazole] | > 100 µM | 110 to 111 °C |
| Brc1ccccc1Cn1cc(CSc2nc3ccccc3s2)nn1 [Compound 6c, 2-(((1-(2-Bromobenzyl)-1H-1,2,3-triazol-4-yl)methyl)thio)benzo[d]thiazole] | 37.4 µM | 104 to 106 °C |
| Fc1cccc(Cn2cc(CSc3nc4ccccc4s3)nn2)c1 [Compound 6d, 2-(((1-(3-Fluorobenzyl)-1H-1,2,3-triazol-4-yl)methyl)thio)benzo[d]thiazole] | 61.1 µM | 112 to 114 °C |
| Clc1ccc(Cn2cc(CSc3nc4ccccc4s3)nn2)cc1 [Compound 6e, 2-(((1-(4-Chlorobenzyl)-1H-1,2,3-triazol-4-yl)methyl)thio)benzo[d]thiazole] | 27.4 µM | 119 to 120 °C |
| Fc1ccccc1Cn1cc(CSc2nc3ccccc3s2)nn1 [Compound 6f, 2-(((1-(2-Fluorobenzyl)-1H-1,2,3-triazol-4-yl)methyl)thio)benzo[d]thiazole] | > 100 µM | 86 to 88 °C |
| c1ccc(Cn2cc(CSc3nc4ccccc4s3)nn2)cc1 [Compound 6g, 2-(((1-Benzyl-1H-1,2,3-triazol-4-yl)methyl)thio)benzo[d]thiazole] | > 100 µM | 109 to 110 °C |
| CC(C)(C)c1ccc(Cn2cc(CSc3nc4ccccc4s3)nn2)cc1 [Compound 6i, 2-(((1-(4-(Tert-butyl)benzyl)-1H-1,2,3-triazol-4-yl)methyl)thio)benzo[d]thiazole] | 29.4 µM | 77 to 78 °C |
| Fc1ccccc1Cn1cc(CSc2nc3cc(Cl)ccc3s2)nn1 [Compound 6j, 5-Chloro-2-(((1-(2-fluorobenzyl)-1H-1,2,3-triazol-4-yl)methyl)thio)benzo[d]thiazole] | 45.9 µM | 115 to 117 °C |
| Clc1ccc2sc(SCc3cn(Cc4ccccc4Br)nn3)nc2c1 [Compound 6k, 2-(((1-(2-Bromobenzyl)-1H-1,2,3-triazol-4-yl)methyl)thio)-5-chlorobenzo[d]thiazole] | 48.4 µM | 119 to 120 °C |
| Clc1ccc2sc(SCc3cn(Cc4ccccc4Cl)nn3)nc2c1 [Compound 6l, 5-Chloro-2-(((1-(2-chlorobenzyl)-1H-1,2,3-triazol-4-yl)methyl)thio)benzo[d]thiazole] | 33.6 µM | 128 to 130 °C |
| Clc1ccc(Cn2cc(CSc3nc4cc(Cl)ccc4s3)nn2)cc1 [Compound 6m, 5-Chloro-2-(((1-(4-chlorobenzyl)-1H-1,2,3-triazol-4-yl)methyl)thio)benzo[d]thiazole] | 28.2 µM | 111 to 112 °C |
| Clc1ccc2sc(SCc3cn(Cc4ccc(Br)cc4)nn3)nc2c1 [Compound 6n, 2-(((1-(4-Bromobenzyl)-1H-1,2,3-triazol-4-yl)methyl)thio)-5-chlorobenzo[d]thiazole] | 28 µM | 114 to 116 °C |
| Clc1cc(Cl)cc(Cn2cc(CSc3nc4cc(Cl)ccc4s3)nn2)c1 [Compound 6o, 5-Chloro-2-(((1-(3,5-dichlorobenzyl)-1H-1,2,3-triazol-4-yl)methyl)thio)benzo[d]thiazole] | 22.3 µM | 124 to 126 °C |
| Fc1cccc(Cn2cc(CSc3nc4cc(Cl)ccc4s3)nn2)c1 [Compound 6p, 5-Chloro-2-(((1-(3-fluorobenzyl)-1H-1,2,3-triazol-4-yl)methyl)thio)benzo[d]thiazole] | 38.6 µM | 140 to 141 °C |
| Fc1ccc(Cn2cc(CSc3nc4cc(Cl)ccc4s3)nn2)cc1 [Compound 6q, 5-Chloro-2-(((1-(4-fluorobenzyl)-1H-1,2,3-triazol-4-yl)methyl)thio)benzo[d]thiazole] | 53.1 µM | 108 to 109 °C |
| Clc1ccc2sc(SCc3cn(Cc4ccccc4)nn3)nc2c1 [Compound 6r, 2-(((1-Benzyl-1H-1,2,3-triazol-4-yl)methyl)thio)-5-chlorobenzo[d]thiazole] | 44.4 µM | 142 to 144 °C |
